Results published in US9717243B2, “Piperidinecarboxylic acid derivatives as fungicides” (priority 2013, dated 2017).

Experiment: LogP by HPLC on reversed phase columns (EEC directive 79/831 Annex V.A8)
Assay type: physicochemical
Settings: not given
Description: Calibration was done with straight-chain alkan2-ones (with 3 to 16 carbon atoms) with known LogP values (measurement of LogP values using retention times with linear interpolation between successive alkanones). Lambda-max-values were determined using UV-spectra from 200 nm to 400 nm and the peak values of the chromatographic signals.

SMILES	Log P[a]
COC(=O)C1(C#N)CCN(C(=O)Cn2nc(C(F)(F)F)cc2C)CC1 [IV-7]	2.32
CCC(C)NC(=O)C1(C#N)CCN(C(=S)Nc2cccc(Cl)c2)CC1 (stereo not drawn) [IV-35]	2.69
CCC(C)NC(=O)C1(C#N)CCN(C(=O)Cc2ccccc2)CC1 (stereo not drawn) [IV-38]	2.08
N#CC1(C(=O)O)CCN(C(=O)Cn2nc(C(F)F)cc2C(F)F)CC1 [IV-12]	1.44
CC(C)(C)OC(=O)C1(C#N)CCN(C(=O)Cc2ccccc2)CC1 [IV-23]	2.96
COC(=O)C1(c2nc(C3=NOC(c4ccccc4OS(C)(=O)=O)C3)cs2)CCN(C(=O)Nc2cc(C(F)F)nn2C)CC1 (stereo not drawn) [Example I-8]	2.64
COC(=O)C1(C(N)=S)CCN(C(=O)Nc2cc(C(F)F)ccc2C(F)F)CC1 [II-13]	2.23
COCCOC(=O)C1(C#N)CCN(C(=O)Cn2nc(C(F)F)cc2C(F)F)CC1 [IV-2]	2.32
CCCCNC(=O)C1(C#N)CCN(C(=O)Nc2ccccc2)CC1 [IV-48]	2.20
N#CC1(C(=O)O)CCN(C(=S)Nc2cccc(Cl)c2)CC1 [IV-32]	2.01
COC(=O)C1(C(N)=S)CCN(C(=O)Nc2cc(C(F)(F)F)nn2C)CC1 [II-19]	1.74
C=CCOC(=O)C1(C#N)CCN(C(=O)Cn2nc(C(F)F)cc2C(F)F)CC1 [IV-5]	2.71
CSCCOC(=O)C1(C#N)CCN(C(=O)Cn2nc(C(F)F)cc2C(F)F)CC1 [IV-3]	2.78
CCC(C)NC(=O)C1(C#N)CCN(C(=O)Nc2ccc(Cl)c(C(F)(F)F)c2)CC1 (stereo not drawn) [IV-39]	3.15
CC(C)=CCN(C)C(=O)C1(C#N)CCN(C(=O)Nc2ccccc2)CC1 [IV-41]	2.61
CC(C)(C)OC(=O)C1(C#N)CCN(C(=O)Nc2ccc(Cl)c(C(F)(F)F)c2)CC1 [IV-28]	4.06
Cc1cc(C(F)F)nn1CC(=O)N1CCC(C#N)(C(=O)O)CC1 [IV-8]	1.10
CC(C)(C)OC(=O)C1(C#N)CCN(C(=S)Nc2cccc(Cl)c2)CC1 [IV-26]	3.72
C#CCOC(=O)C1(C(N)=S)CCN(C(=O)Cn2nc(C(F)F)cc2C(F)F)CC1 [II-17]	2.27
Cc1cc(C(F)(F)F)nn1CC(=O)N1CCC(C#N)(C(=O)O)CC1 [IV-14]	1.50
COC(=O)C1(C(N)=S)CCN(C(=O)Cn2nc(C)cc2C(F)F)CC1 [II-5]	1.75

Next, values leading:

Log P[a]	SMILES
4.26	O=C(Cn1nc(C(F)F)cc1C(F)F)N1CCC(C(=O)OCc2ccccc2)(c2nc(C3=NOC(c4ccccc4)C3)cs2)CC1 (stereo not drawn) [Example I-38]
3.87	CSCCOC(=O)C1(c2nc(C3=NOC(c4c(F)cccc4F)C3)cs2)CCN(C(=O)Cn2nc(C(F)F)cc2C(F)F)CC1 (stereo not drawn) [Example I-49]
3.96	C#CCOc1ccccc1C1CC(c2csc(C3(C(=O)OCC=C)CCN(C(=O)Cn4nc(C(F)F)cc4C(F)F)CC3)n2)=NO1 (stereo not drawn) [Example I-45]
3.76	CCOC(=O)C1(c2nc(C3=NOC(c4ccccc4)C3)cs2)CCN(C(=O)Cn2nc(C(F)F)cc2C(F)F)CC1 (stereo not drawn) [Example I-25]
3.73	CCOC(=O)C1(c2nc(C3=NOC(c4c(F)cccc4F)C3)cs2)CCN(C(=O)Cn2nc(C(F)F)cc2C(F)F)CC1 (stereo not drawn) [Example I-24]
3.09	C#CCOc1ccc(F)c(F)c1C1CC(c2csc(C3(C(=O)OC)CCN(C(=O)Cn4nc(C)cc4C(F)F)CC3)n2)=NO1 (stereo not drawn) [Example I-76]
3.55	C#CCOc1ccc(F)c(F)c1C1CC(c2csc(C3(C(=O)OC4CCOC4)CCN(C(=O)Cn4nc(C(F)F)cc4C(F)F)CC3)n2)=NO1 (stereo not drawn) [Example I-59]
3.89	CSCCOC(=O)C1(c2nc(C3=NOC(c4ccccc4)C3)cs2)CCN(C(=O)Cn2nc(C(F)F)cc2C(F)F)CC1 (stereo not drawn) [Example I-50]
3.55	COC(=O)C1(c2nc(C3=NOC(c4c(Cl)cccc4OS(C)(=O)=O)C3)cs2)CCN(C(=O)Cn2nc(C(F)(F)F)cc2C)CC1 (stereo not drawn) [Example I-67]
3.00	COC(=O)C1(c2nc(C3=NOC(c4ccccc4OS(C)(=O)=O)C3)cs2)CCN(C(=O)Nc2cc(C(F)(F)F)nn2C)CC1 (stereo not drawn) [Example I-79]
3.33	C#CCOc1ccccc1C1CC(c2csc(C3(C(=O)OC)CCN(C(=O)Cn4nc(C(F)F)cc4C)CC3)n2)=NO1 (stereo not drawn) [Example I-65]
3.39	O=C(Cn1nc(C(F)F)cc1C(F)F)N1CCC(C(=O)OC2CCOC2)(c2nc(C3=NOC(c4ccccc4)C3)cs2)CC1 (stereo not drawn) [Example I-56]
3.00	C#CCOc1ccccc1C1CC(c2csc(C3(C(=O)OC)CCN(C(=O)Nc4cc(C(F)F)nn4C)CC3)n2)=NO1 (stereo not drawn) [Example I-15]
3.04	C#CCOc1ccc(F)c(F)c1C1CC(c2csc(C3(C(=O)OC)CCN(C(=O)Nc4cn(C(F)F)nc4C)CC3)n2)=NO1 (stereo not drawn) [Example I-18]
1.89	COC(=O)C1(C#N)CCN(C(=O)Cn2nc(C(F)F)cc2C)CC1 [IV-9]
3.61	C#CCOc1ccccc1C1CC(c2csc(C3(C(=O)OC)CCN(C(=O)Cn4nc(C(F)F)cc4C(F)F)CC3)n2)=NO1 (stereo not drawn) [Example I-4]
3.23	N#CC1(C(=O)OCc2ccccc2)CCN(C(=O)Cn2nc(C(F)F)cc2C(F)F)CC1 [IV-6]

Log P[a]	SMILES
3.50	CC(C)(C)OC(=O)C1(C#N)CCN(C(=S)Nc2ccccc2C(F)(F)F)CC1 [IV-25]
2.96	COC(=O)C1(c2nc(C3=NOC(c4ccccc4OS(C)(=O)=O)C3)cs2)CCN(C(=O)Cn2nc(C(F)F)cc2C)CC1 (stereo not drawn) [Example I-64]
1.30	COC(=O)C1(C(N)=S)CCN(C(=O)Nc2cn(C(F)F)nc2C)CC1 [II-14]
4.04	CC(C)OC(=O)C1(c2nc(C3=NOC(c4ccccc4)C3)cs2)CCN(C(=O)Cn2nc(C(F)F)cc2C(F)F)CC1 (stereo not drawn) [Example I-32]
2.47	COC(=O)C1(C#N)CCN(C(=O)Nc2cc(C(F)F)ccc2C(F)F)CC1 [IV-16]
1.51	COC(=O)C1(C#N)CCN(C(=O)Nc2cn(C(F)F)nc2C)CC1 [IV-18]
3.39	CS(=O)(=O)Oc1cccc(Cl)c1C1CC(c2csc(C3(C(=O)OC4CCOC4)CCN(C(=O)Cn4nc(C(F)F)cc4C(F)F)CC3)n2)=NO1 (stereo not drawn) [Example I-53]
4.21	O=C(Cn1nc(C(F)F)cc1C(F)F)N1CCC(C(=O)OCc2ccccc2)(c2nc(C3=NOC(c4c(F)cccc4F)C3)cs2)CC1 (stereo not drawn) [Example I-37]
3.55	COC(=O)C1(c2nc(C3=NOC(c4ccccc4)C3)cs2)CCN(C(=O)Cn2nc(C(F)(F)F)cc2C)CC1 (stereo not drawn) [Example I-70]
3.85	C#CCOc1ccc(F)c(F)c1C1CC(c2csc(C3(C(=O)OCC)CCN(C(=O)Cn4nc(C(F)F)cc4C(F)F)CC3)n2)=NO1 (stereo not drawn) [Example I-28]
3.00	C#CCOc1ccc(F)c(F)c1C1CC(c2csc(C3(C(=O)OC)CCN(C(=O)Nc4cc(C(F)F)nn4C)CC3)n2)=NO1 (stereo not drawn) [Example I-16]
3.02	C#CCOc1ccccc1C1CC(c2csc(C3(C(=O)OC)CCN(C(=O)Nc4cn(C(F)F)nc4C)CC3)n2)=NO1 (stereo not drawn) [Example I-17]
2.73	COC(=O)C1(c2nc(C3=NOC(c4c(Cl)cccc4OS(C)(=O)=O)C3)cs2)CCN(C(=O)Nc2cn(C)nc2C(F)F)CC1 (stereo not drawn) [Example I-14]
3.96	CC(C)OC(=O)C1(c2nc(C3=NOC(c4c(Cl)cccc4OS(C)(=O)=O)C3)cs2)CCN(C(=O)Cn2nc(C(F)F)cc2C(F)F)CC1 (stereo not drawn) [Example I-29]
2.26	COC(=O)C1(C#N)CCN(C(=O)Nc2cc(C)ccc2C)CC1 [IV-19]
3.99	C#CCOc1ccc(F)c(F)c1C1CC(c2csc(C3(C(=O)OCCSC)CCN(C(=O)Cn4nc(C(F)F)cc4C(F)F)CC3)n2)=NO1 (stereo not drawn) [Example I-52]

Same assay, conditions: Table 1, compounds of formula (I); LC-UV, acidic range, 0.1% formic acid in water and acetonitrile as eluent

SMILES	Log P[a]
O=C(Cn1nc(C(F)F)cc1C(F)F)N1CCC(C(=O)OCc2ccccc2)(c2nc(C3=NOC(c4ccccc4-c4ccccc4)C3)cs2)CC1 (stereo not drawn) [Example I-36]	5.08
COC(=O)C1(c2nc(C3=NOC(c4ccccc4-c4ccccc4)C3)cs2)CCN(C(=O)Cn2nc(C(F)F)cc2C)CC1 (stereo not drawn) [Example I-61]	4.09
COC(=O)C1(c2nc(C3=NOC(c4ccccc4-c4ccccc4)C3)cs2)CCN(C(=O)Cn2nc(C(F)(F)F)cc2C)CC1 (stereo not drawn) [Example I-68]	4.49

Same assay, conditions: Table 2, compounds of formula (IV); LC-UV, acidic range, 0.1% formic acid in water and acetonitrile as eluent; read-out: Log P[a]

SMILES	chromatographic logP
COC(=O)C1(C#N)CCN(C(=O)Nc2cc(C(F)F)nn2C)CC1 [IV-17, methyl 4-cyano-1-{[3-(difluoromethyl)-1-methyl-1H-pyrazol-5-yl]carbamoyl}piperidine-4-carboxylate]	1.53

Same assay, conditions: Table 4, compounds of formula (II); LC-UV, acidic range, 0.1% formic acid in water and acetonitrile as eluent; read-out: Log P[a]

SMILES	chromatographic logP
COC(=O)C1(C(N)=S)CCN(C(=O)Nc2cc(C(F)F)nn2C)CC1 [II-12, methyl 4-carbamothioyl-1-{[3-(difluoromethyl)-1-methyl-1H-pyrazol-5-yl]carbamoyl}piperidine-4-carboxylate]	1.33

Same assay, conditions: pH 2.7; synthesis intermediates in preparation examples; read-out: LogP (pH 2.7)

SMILES	chromatographic logP
CS(=O)(=O)Oc1cccc(Cl)c1C1CC(C(=O)CBr)=NO1 (stereo not drawn) [2-[3-(bromoacetyl)-4,5-dihydro-1,2-oxazol-5-yl]-3-chlorophenyl methanesulfonate]	2.93
